According to article PMC7156724, “Potent BRD4 inhibitor suppresses cancer cell-macrophage interaction” (Nature Communications, 2020):
Values joined by “and” are separate entries in the source; they are usually repeats but may differ in a detail not shown here. Equal values may be shown once.

How the values were obtained:
ES-2 ovarian cancer = assay: ES-2 ovarian tumor xenograft growth; assay type: in vivo, mouse
Protocol: 4–6 weeks old female BALB/c nude mice were used for most experiments, with the exception of 6–8 weeks old female C57BL/6 mice were used for B16F10 experiments, and 6–8 weeks old male BALB/c nude mice and SD rats were used for pharmacokinetic experiments. All animals were purchased from Shanghai SIPPR-Bk Lab Animal Co., Ltd. All animals were housed under a regimen of 12 h light/12 h dark cycles and specific pathogen-free conditions. 5×10^6 NCI-H526, ES-2, MDA-MB231, A2780, A375, B16F10, and TMD-8 cells (0.1 ml) were injected subcutaneously into female nude mice. The melanoma patient-derived xenograft model was derived from a human melanoma sample (BRAF, NARS and NF1 wild type, and p53 mutant) removed from a patient in Xiangya Hospital. Surgically removed tumor fragments were implanted subcutaneously into female NSG mice. When the tumors grew to ~1000 mm^3, they were harvested and cryopreserved or immediately re-implanted for expansion or experiments. Mouse body weight and tumor sizes were measured every 3 days. Once the tumors grew to 150–200 mm^3, mice were treated with the compounds as described in the Figures. 1 × 10^6 A2780 cells (1 ml) were injected into the abdominal cavity of nude mice. Ascitic volume and tumor weight were measured by an electronic balance. All the procedures were evaluated and approved by the Institutional Animal Care and Use Committee of Central South University and Yale University.
Supplementary Figure 9. […]
PO, oral administration; QD, once daily; BID, twice daily; D, day. (c,d) Tumor growth curves for ES2 ovarian tumor (c), MDA-MB231 breast tumor (d) bearing mice treated with the indicated compounds for 21 days. Compounds were orally administrated once daily. Data are presented as mean ± SEM from 6 different mice. p values were calculated using two-tailed, unpaired t tests.
**, p<0.01; ***, p<0.001. Source data are provided as a Source Data file. […]

HIF1A mRNA = assay: RT-qPCR of HIF1A in A375 or A2780 cells; assay type: cell-based, human
Protocol: Fig. 7 NHWD-870 inhibited CSF1 expression through suppressing BRD4 and HIF1α in tumor cells. a, b Representative western blot analysis of control (Ctrl) and BRD4 knockout (KO) A375 and A2780 cells exposed to 20% or 1% O2 for 24 hours. Selected from three independent experiments. c, d Representative western blot analysis of A375 and A2780 cells treated with DMSO or 25 nM NHWD-870 and exposed to 20% or 1% O2 for 24 h. Selected from three independent experiments. e Relative HIF1 luciferase reporter activity in control (Ctrl), BRD4 knockout (KO), or NHWD-870 treated A375 and A2780 cells exposed to 20% or 1% O2 for 24 h. Data are presented as mean ± SEM from three independent experiments. f RT-qPCR analyses of CSF1 in control (Ctrl), BRD4 knockout (KO), or NHWD-870 treated A375 and A2780 cells exposed to 20% or 1% O2 for 24 hours. Data are presented as mean ± SEM from three independent experiments. g RT-qPCR analyses of HIF1A in A375 or A2780 cells treated with 15 nM NHWD-870 or DMSO control for 24 h. Data are presented as mean ± SEM from three independent experiments. h Genome browser view of BRD4 ChIP-seq peaks on the HIF1A promoter. […] NHWD-870 inhibits the proliferation and survival of TAMs partly by inhibiting BRD4 activity, HIF1α expression, and CSF1 secretion by tumor cells, and downregulating CSF1R mediated ERK and PI3K/AKT signaling in TAMs. p values were calculated using two-tailed, unpaired t tests in this figure. *p < 0.05; **p < 0.01; ***p < 0.001. […]
Total RNA was extracted with RNeasy plus mini kit (Qiagen), and then cDNA was synthesized by iScript™ cDNA Synthesis Kit (Bio-Rad). qPCR was performed using a CFX96 Real-time PCR Instrument (BioRad). Data were collected using CFX Manager version 3.1.1517.823 and analyzed using Microsoft Excel 2010. Relative expression levels were determined by normalization to human GAPDH using the ∆∆Ct method. […]

[1] = ES-2, 1mg/kg p.o. QD x 21D, day 0, group AVG
[2] = ES-2, 1mg/kg p.o. QD x 21D, day 0, individual animals
[3] = ES-2, 1mg/kg p.o. QD x 21D, day 4, group AVG
[4] = ES-2, 1mg/kg p.o. QD x 21D, day 4, individual animals
[5] = ES-2, 1mg/kg p.o. QD x 21D, day 7, group AVG
[6] = ES-2, 1mg/kg p.o. QD x 21D, day 7, individual animals
[7] = ES-2, 1mg/kg p.o. QD x 21D, day 11, group AVG
[8] = ES-2, 1mg/kg p.o. QD x 21D, day 11, individual animals
[9] = ES-2, 1mg/kg p.o. QD x 21D, day 14, group AVG
[10] = ES-2, 1mg/kg p.o. QD x 21D, day 14, individual animals
[11] = ES-2, 1mg/kg p.o. QD x 21D, day 17, group AVG
[12] = ES-2, 1mg/kg p.o. QD x 21D, day 17, individual animals
[13] = ES-2, 1mg/kg p.o. QD x 21D, day 20, group AVG
[14] = ES-2, 1mg/kg p.o. QD x 21D, day 20, individual animals
[15] = ES-2, 3mg/kg p.o. QD x 21D, day 0, group AVG
[16] = ES-2, 3mg/kg p.o. QD x 21D, day 0, individual animals
[17] = ES-2, 3mg/kg p.o. QD x 21D, day 4, group AVG
[18] = ES-2, 3mg/kg p.o. QD x 21D, day 4, individual animals
[19] = ES-2, 3mg/kg p.o. QD x 21D, day 7, group AVG
[20] = ES-2, 3mg/kg p.o. QD x 21D, day 7, individual animals
[21] = ES-2, 3mg/kg p.o. QD x 21D, day 11, group AVG
[22] = ES-2, 3mg/kg p.o. QD x 21D, day 11, individual animals
[23] = ES-2, 3mg/kg p.o. QD x 21D, day 14, group AVG
[24] = ES-2, 3mg/kg p.o. QD x 21D, day 14, individual animals
[25] = ES-2, 3mg/kg p.o. QD x 21D, day 17, group AVG
[26] = ES-2, 3mg/kg p.o. QD x 21D, day 17, individual animals
[27] = ES-2, 3mg/kg p.o. QD x 21D, day 20, group AVG
[28] = ES-2, 3mg/kg p.o. QD x 21D, day 20, individual animals

Cc1nnn(C)c1-c1cnc2c3c4cnn(C)c4ccc3n([C@H](c3ccccc3)C3CCOCC3)c2c1 [NHWD-870]
% Tumor growth, AVG (ES-2 ovarian cancer; [1]): 0% | Tumor volume, AVG (ES-2 ovarian cancer; [1]): 182.834 mm^3 | % Tumor growth (ES-2 ovarian cancer; [2]): 0% | Tumor volume (ES-2 ovarian cancer; [2]): 161.981 mm^3 and 208.246 mm^3 and 257.236 mm^3 and 142.384 mm^3 and 223.655 mm^3 and 103.5 mm^3 | % Tumor growth, AVG (ES-2 ovarian cancer; [3]): 71.8081% | Tumor volume, AVG (ES-2 ovarian cancer; [3]): 319.202 mm^3 | % Tumor growth (ES-2 ovarian cancer; [4]): 19.7778% and 126.134% and 74.5915% and 55.5126% and 76.849% and 77.9831% | Tumor volume (ES-2 ovarian cancer; [4]): 194.017 mm^3 and 470.917 mm^3 and 449.112 mm^3 and 221.425 mm^3 and 395.531 mm^3 and 184.213 mm^3 | % Tumor growth, AVG (ES-2 ovarian cancer; [5]): 143.924% | Tumor volume, AVG (ES-2 ovarian cancer; [5]): 449.139 mm^3 | % Tumor growth (ES-2 ovarian cancer; [6]): 108.101% and 224.596% and 137.285% and 85.7809% and 134.14% and 173.642% | Tumor volume (ES-2 ovarian cancer; [6]): 337.084 mm^3 and 675.959 mm^3 and 610.381 mm^3 and 264.522 mm^3 and 523.665 mm^3 and 283.22 mm^3 | % Tumor growth, AVG (ES-2 ovarian cancer; [7]): 266.816% | Tumor volume, AVG (ES-2 ovarian cancer; [7]): 666.569 mm^3 | % Tumor growth (ES-2 ovarian cancer; [8]): 228.373% and 360.792% and 253.375% and 196.866% and 222.989% and 338.501% | Tumor volume (ES-2 ovarian cancer; [8]): 531.902 mm^3 and 959.584 mm^3 and 909.007 mm^3 and 422.689 mm^3 and 722.381 mm^3 and 453.85 mm^3 | % Tumor growth, AVG (ES-2 ovarian cancer; [9]): 321.081% | Tumor volume, AVG (ES-2 ovarian cancer; [9]): 765.856 mm^3 | % Tumor growth (ES-2 ovarian cancer; [10]): 250.605% and 403.815% and 289.634% and 267.746% and 320.675% and 394.009% | Tumor volume (ES-2 ovarian cancer; [10]): 567.913 mm^3 and 1049.18 mm^3 and 1002.28 mm^3 and 523.611 mm^3 and 940.859 mm^3 and 511.301 mm^3 | % Tumor growth, AVG (ES-2 ovarian cancer; [11]): 435.897% | Tumor volume, AVG (ES-2 ovarian cancer; [11]): 1001.66 mm^3 | % Tumor growth (ES-2 ovarian cancer; [12]): 362.904% and 591.91% and 468.225% and 329.053% and 437.775% and 425.513% | Tumor volume (ES-2 ovarian cancer; [12]): 749.817 mm^3 and 1440.88 mm^3 and 1461.68 mm^3 and 610.902 mm^3 and 1202.76 mm^3 and 543.908 mm^3 | % Tumor growth, AVG (ES-2 ovarian cancer; [13]): 569.584% | Tumor volume, AVG (ES-2 ovarian cancer; [13]): 1249.88 mm^3 | % Tumor growth (ES-2 ovarian cancer; [14]): 729.742% and 506.506% and 450.639% and 539.702% and 621.332% | Tumor volume (ES-2 ovarian cancer; [14]): 1727.91 mm^3 and 1560.15 mm^3 and 784.021 mm^3 and 1430.72 mm^3 and 746.582 mm^3 | % Tumor growth, AVG (ES-2 ovarian cancer; [15]): 0% | Tumor volume, AVG (ES-2 ovarian cancer; [15]): 180.514 mm^3 | % Tumor growth (ES-2 ovarian cancer; [16]): 0% | Tumor volume (ES-2 ovarian cancer; [16]): 100.979 mm^3 and 154.514 mm^3 and 151.014 mm^3 and 168.003 mm^3 and 255.303 mm^3 and 253.274 mm^3 | % Tumor growth, AVG (ES-2 ovarian cancer; [17]): 106.339% | Tumor volume, AVG (ES-2 ovarian cancer; [17]): 355.904 mm^3 | % Tumor growth (ES-2 ovarian cancer; [18]): 103.958% and 55.5923% and 228.844% and 138.521% and 84.9035% and 26.2158% | Tumor volume (ES-2 ovarian cancer; [18]): 205.955 mm^3 and 240.412 mm^3 and 496.599 mm^3 and 400.722 mm^3 and 472.064 mm^3 and 319.672 mm^3 | % Tumor growth, AVG (ES-2 ovarian cancer; [19]): 146.015% | Tumor volume, AVG (ES-2 ovarian cancer; [19]): 424.47 mm^3 | % Tumor growth (ES-2 ovarian cancer; [20]): 172.578% and 87.9551% and 265.997% and 159.587% and 128.487% and 61.4849% | Tumor volume (ES-2 ovarian cancer; [20]): 275.247 mm^3 and 290.417 mm^3 and 552.706 mm^3 and 436.115 mm^3 and 583.334 mm^3 and 408.999 mm^3 | % Tumor growth, AVG (ES-2 ovarian cancer; [21]): 196.378% | Tumor volume, AVG (ES-2 ovarian cancer; [21]): 514.744 mm^3 | % Tumor growth (ES-2 ovarian cancer; [22]): 265.602% and 115.285% and 217.088% and 283.945% and 177.512% and 118.838% | Tumor volume (ES-2 ovarian cancer; [22]): 369.182 mm^3 and 332.645 mm^3 and 478.846 mm^3 and 645.04 mm^3 and 708.495 mm^3 and 554.259 mm^3 | % Tumor growth, AVG (ES-2 ovarian cancer; [23]): 274.736% | Tumor volume, AVG (ES-2 ovarian cancer; [23]): 656.818 mm^3 | % Tumor growth (ES-2 ovarian cancer; [24]): 256.941% and 190.731% and 428.695% and 356.714% and 248.463% and 166.876% | Tumor volume (ES-2 ovarian cancer; [24]): 360.436 mm^3 and 449.22 mm^3 and 798.401 mm^3 and 767.293 mm^3 and 889.635 mm^3 and 675.926 mm^3 | % Tumor growth, AVG (ES-2 ovarian cancer; [25]): 372.557% | Tumor volume, AVG (ES-2 ovarian cancer; [25]): 841.506 mm^3 | % Tumor growth (ES-2 ovarian cancer; [26]): 349.385% and 221.259% and 495.296% and 524.547% and 433.889% and 210.963% | Tumor volume (ES-2 ovarian cancer; [26]): 453.785 mm^3 and 496.39 mm^3 and 898.977 mm^3 and 1049.26 mm^3 and 1363.03 mm^3 and 787.588 mm^3 | % Tumor growth, AVG (ES-2 ovarian cancer; [27]): 570.165% | Tumor volume, AVG (ES-2 ovarian cancer; [27]): 1173.35 mm^3 | % Tumor growth (ES-2 ovarian cancer; [28]): 589.68% and 492.445% and 716.71% and 706.345% and 598.649% and 317.161% | Tumor volume (ES-2 ovarian cancer; [28]): 696.433 mm^3 and 915.41 mm^3 and 1233.34 mm^3 and 1354.69 mm^3 and 1783.67 mm^3 and 1056.56 mm^3 | effect on tumor growth (ES-2 ovarian cancer; ES-2 ovarian cancer, oral once daily 21 days): strong tumor-suppressive effects | HIF1A mRNA levels (HIF1A mRNA; 15 nM, 24 h, A375 or A2780 cells): decreased HIF1A mRNA levels | HIF1A mRNA, relative to DMSO (Fig.7g) (HIF1A mRNA; A375): 0.3638 and 0.3259 and 0.3497 | HIF1A mRNA, relative to DMSO (Fig.7g) (HIF1A mRNA; A2780): 0.269 and 0.2453 and 0.2176
